From US11311562B2, “Methods for reducing the incidence of oxidative stress using human milk oligosaccharides, vitamin c and anti-inflammatory agents” (priority 2010, dated 2022)

Assays:
[1] = tested on: human parainfluenza virus (HPIV3); type: cell-based; details: HMOs added at 1 mg/mL or 10 mg/mL; virus dose about 500-1,000 units/mL
IP-10 = IP-10 in supernatants of HMO-pretreated, RSV-infected PBMCs; type: cell-based, human; details: for IP-10 in virus-infected variables: RSV MOI 0.1, 24 h pretreatment, both donors, FIGS. 3-6; for IP-10 in virus-infected variables / reducing inflammation caused by RSV: PBMCs; for reducing inflammation caused by RSV: pretreatment for 24 hours
Procedure: (§1) Specifically, either 3′SL or 6′SL is added, at concentrations of 0.1 mg/mL, 0.2 mg/mL, or 0.5 mg/mL to fresh peripheral blood mononuclear cells (PBMCs) and incubated at 37° C. in 5% CO2 to pretreat the cells for approximately 24 hours. LNnT is added, at concentrations of 0.1 mg/mL, 0.2 mg/mL, or 1 mg/mL to PBMCs and incubated at 37° C. in 5% CO2 to pretreat the cells for approximately 24 hours. Lactose is included as a carbohydrate control. Matched endotoxin unit concentration controls are included to allow differentiation of ingredient effects from inherent low levels of endotoxin. Some variables are then incubated with RSV at a multiplicity of infection (MOI) of 0.1 for approximately 1 hour at 37° C. in 5% in CO2. Uninfected control variables are incubated with medium for approximately 1 hour at 37° C. in 5% CO2. After approximately one hour, fresh medium alone, or fresh medium containing the appropriate concentration of 3′SL, 6′SL, LNnT, lactose, or endotoxin is added to the appropriate tubes and the cells are incubated for 48 hours at 37° C. in 5% CO2. Supernatants are collected at 24 and 48 hours post-infection. Cytokines are measured in supernatants for each variable at 24 and 48 hours to assess the effects of HMOs on the early immune response to RSV. Cytokines are measured using custom Bio-Plex Human cytokine kits from Bio-Rad.
IP-10 is a CXC chemokine that attracts, binds to and activates the CXCR3 receptor on natural killer cells and memory T cells. IP-10 is expressed by monocytes and a number of other cells, and is induced by interferon. A positive correlation exists between RSV clinical disease severity in children (as measured by: length of hospital stay, fever, and number of days supplemental O2 is required) and serum IP-10. Therefore, a decrease in IP-10 signals a decrease in severity of RSV disease experienced.

H1N1 influenza virus [2] = type: cell-based; details: for IC50 (mg HMO/mL) H1N1 Influenza: HMOs added at 1 mg/mL or 10 mg/mL, virus dose about 500-1,000 units/mL
[3] = tested on: respiratory syncytial virus (RSV); type: cell-based; details: HMOs added at 1 mg/mL or 10 mg/mL; virus dose about 500-1,000 units/mL
[4] = tested on: monocyte-derived cytokines; experiment: monocyte-derived cytokines in supernatants of HMO-pretreated PBMCs with or without RSV; type: cell-based, human
Procedure: as §1

interleukin 10 (IL-10) = experiment: IL-10 in supernatants of HMO-pretreated PBMCs with or without RSV; type: cell-based, human; details: PBMCs in the presence or absence of RSV; FIGS. 7-10
Procedure: as §1

H1N1 influenza virus [5] = type: cell-based; details: 10 mg/mL HMO; MDCK cells; FIG. 1
[6] = PBMCs in the presence or absence of the virus

Compound	IC50 (mg HMO/mL) HPIV3 [1] [mg HMO/mL]	IP-10 in virus-infected variables (IP-10)	RSV-induced IP-10, Donor B (IP-10; RSV-infected PBMCs, Donor B, 0.1-0.5 mg/mL)	RSV-induced IP-10, Donor E (IP-10; RSV-infected PBMCs, Donor E, 0.1-0.5 mg/mL)	reducing inflammation caused by RSV (IP-10)	anti-viral activity against H1N1 influenza virus (H1N1 influenza virus [2]; HMO at 1 mg/mL)	IC50 (mg HMO/mL) H1N1 Influenza (H1N1 influenza virus [2]) [mg HMO/mL]	IC50 (mg HMO/mL) RSV [3] [mg HMO/mL]	production of monocyte-derived cytokines (immunomodulatory) [4, 6]	IP-10 level compared with uninfected controls (IP-10; RSV-infected PBMCs)	downregulation of IP-10 compared with 3′SL (IP-10; RSV-infected PBMCs)	IL-10 concentration (interleukin 10 (IL-10))	inhibition of virus infectivity (H1N1 influenza virus [5])	production of monocyte-derived cytokines (immunomodulatory) ([4]; PBMCs in the absence of the virus)
CC(=O)N[C@H]1[C@H]([C@H](O)[C@H](O)CO)O[C@@](O[C@H]2[C@@H](O)[C@@H](CO)O[C@@H](O[C@H]3[C@H](O)[C@@H](O)C(O)O[C@@H]3CO)[C@@H]2O)(C(=O)O)C[C@@H]1O (stereo partly drawn) [3′SL, 3′-sialyllactose]	>10	dampen RSV-induced IP-10	not effective	downregulates RSV-induced IP-10	effective	inhibited	~5	>10	induces and/or modifies the production of monocyte-derived cytokines such as MIP-1β, Interferon-γ, IL-8, and IL-1ra					
CC(=O)N[C@H]1[C@H](O[C@H]2[C@@H](O)[C@@H](CO)O[C@@H](O[C@H]3[C@H](O)[C@@H](O)C(O)O[C@@H]3CO)[C@@H]2O)O[C@H](CO)[C@@H](O[C@@H]2O[C@H](CO)[C@H](O)[C@H](O)[C@H]2O)[C@@H]1O (mixture of isomers) [LNnT, lacto-N-neotetraose]		clearly downregulates IP-10			effective		>10	>10	induces and/or modifies the production of monocyte-derived cytokines such as IL-10, MIP-1β, Interferon-γ, IL-8, IL-1α, IL-1β, and IL-1ra	reduce IP-10 to levels found in uninfected controls	more effective than 3′SL	increases IL-10 concentration in a dose-dependent manner		
CC(=O)N[C@H]1[C@H]([C@H](O)[C@H](O)CO)O[C@@](OC[C@H]2O[C@@H](O[C@H]3[C@H](O)[C@@H](O)[C@H](O)O[C@@H]3CO)[C@H](O)[C@@H](O)[C@H]2O)(C(=O)O)C[C@@H]1O [6′SL, 6′-sialyllactose]	>10	downregulates IP-10			effective		~10	>10		reduce IP-10 to levels found in uninfected controls	more effective than 3′SL	increases interleukin 10 (IL-10) concentration in a dose-dependent manner	approximately 60%	induces and/or modifies the production of monocyte-derived cytokines such as IL-10, MIP-1β, Interferon-γ, IL-8, IL-1α, IL-1β, and IL-1ra
